Consider eleven molecules from patent US9758508B2, “2,3-dihydro-isoindole-1-on derivative as BTK kinase suppressant, and pharmaceutical composition including same” (CRYSTALGENOMICS, INC., priority 2012, dated 2017).

BTK, sequence (Q06187 whole entry): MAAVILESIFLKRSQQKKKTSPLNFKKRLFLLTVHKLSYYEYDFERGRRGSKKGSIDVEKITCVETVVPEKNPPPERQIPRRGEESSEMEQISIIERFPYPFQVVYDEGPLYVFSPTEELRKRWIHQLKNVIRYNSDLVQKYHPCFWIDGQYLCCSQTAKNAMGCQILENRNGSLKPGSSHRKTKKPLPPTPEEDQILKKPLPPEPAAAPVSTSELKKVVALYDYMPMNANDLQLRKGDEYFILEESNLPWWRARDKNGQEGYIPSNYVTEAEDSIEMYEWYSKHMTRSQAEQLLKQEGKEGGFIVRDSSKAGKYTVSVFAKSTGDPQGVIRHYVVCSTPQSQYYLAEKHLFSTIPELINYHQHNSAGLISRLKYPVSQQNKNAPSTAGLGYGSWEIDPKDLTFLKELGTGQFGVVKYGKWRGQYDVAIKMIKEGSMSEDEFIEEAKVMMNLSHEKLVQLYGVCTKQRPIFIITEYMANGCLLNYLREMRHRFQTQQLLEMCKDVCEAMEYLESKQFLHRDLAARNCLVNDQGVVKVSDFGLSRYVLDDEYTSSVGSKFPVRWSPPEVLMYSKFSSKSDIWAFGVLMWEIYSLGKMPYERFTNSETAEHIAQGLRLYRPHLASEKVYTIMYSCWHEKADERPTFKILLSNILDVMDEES

The target of the experiment is BTK (Homo sapiens (Human), UniProt Q06187). Put plainly: Assay for BTK inhibition activity (ELISA method). Format: biochemical. The following applies: 0.4 nM BTK enzyme, 50 μM ATP, 20 minutes at 30° C. The protocol:
In order to evaluate the activity of the compounds of the present invention as a BTK inhibitor, commercially available BTK (Promega) was used for this experiment. Specifically, an enzymatic reaction was conducted by mixing 0.4 nM of BTK enzyme, 40 μM of biotin-S1 substrate peptide and 50 μM of ATP in a reaction buffer (15 mM Tris-HCl (pH 7.5), 20 mM MgCl2, 2 mM MnCl2, 2 mM DTT, 0.1 mg/ml BSA). The mixture was treated with the test compounds at predetermined concentrations and allowed to react for 20 minutes at 30° C. Upon completion of the reaction, the activities of the test compounds were measured by ELISA method. The absorbance value of an untreated sample was used as a control (100% control). BTK enzyme activities were measured after treatment with various concentrations of the test compounds, and the concentration of test compounds resulting in 50% inhibition of BTK enzyme as compared to the control was determined as IC50 of BTK inhibitor.
On the technique in general: In an ELISA, binding on a coated surface is turned into a signal by an enzyme label.
On to `Cc1cnc(-c2ccc(-c3ccc(NC(=O)Nc4c(F)cccc4F)cc3F)c3c2C(=O)NC3)[nH]1` [Compound 3, 1-(2,6-difluoro-phenyl)-3-{3-fluoro-4-[7-(5-methyl-1H-imidazol-2-yl)-1-oxo-2,3-dihydro-1H-isoindol-4-yl]-phenyl}-urea], for which the IC50 came to 1 nM.
Molecule `Cc1cnc(-c2ccc(-c3ccc(NC(=O)Nc4c(F)cccc4Cl)cc3F)c3c2C(=O)NC3)[nH]1` [Compound 4, 1-(2-chloro-6-fluoro-phenyl)-3-{3-fluoro-4-[7-(5-methyl-1H-imidazol-2-yl)-1-oxo-2,3-dihydro-1H-isoindol-4-yl]-phenyl}-urea] came in with an IC50 of 0.9 nM.
Take `Cc1cnc(-c2ccc(-c3ccc(NC(=O)Nc4c(F)cc(F)cc4F)cc3F)c3c2C(=O)NC3)[nH]1` [Compound 7, 1-{3-fluoro-4-[7-(5-methyl-1H-imidazol-2-yl)-1-oxo-2,3-dihydro-1H-isoindol-4-yl]-phenyl}-3-(2,4,6-trifluoro-phenyl)-urea]: half-maximal inhibition (IC50) was put at 0.1 nM.
As for `Cc1cnc(-c2ccc(-c3ccc(NC(=O)Nc4c(F)c(F)c(F)c(F)c4F)cc3F)c3c2C(=O)NC3)[nH]1` [Compound 9, 1-{3-fluoro-4-[7-(5-methyl-1H-imidazol-2-yl)-1-oxo-2,3-dihydro-1H-isoindol-4-yl]-phenyl}-3-pentafluorophenyl-urea], the figure is 0.4 nM.
For the molecule `Cc1cnc(-c2ccc(-c3ccc(NC(=O)Nc4c(F)ccc(F)c4F)cc3F)c3c2C(=O)NC3)[nH]1` [Compound 12, 1-{3-fluoro-4-[7-(5-methyl-1H-imidazol-2-yl)-1-oxo-2,3-dihydro-1H-isoindol-4-yl]-phenyl}-3-(2,3,6-trifluoro-phenyl)-urea], inhibition was half-maximal at 0.28 nM (IC50).
On to `Cc1cnc(-c2ccc(-c3ccc(NC(=O)Nc4ccc(F)c(F)c4)cc3F)c3c2C(=O)NC3)[nH]1` [Compound 14, 1-(3,4-difluoro-phenyl)-3-{3-fluoro-4-[7-(5-methyl-1H-imidazol-2-yl)-1-oxo-2,3-dihydro-1H-isoindol-4-yl]-phenyl}-urea], for which the midpoint of inhibition, the IC50, lay at 5.6 nM.
`Cc1cnc(-c2ccc(-c3ccc(NC(=O)Nc4ccc(C#N)c(F)c4)cc3F)c3c2C(=O)NC3)[nH]1` [Compound 15, 1-(4-cyano-3-fluorophenyl)-3-(3-fluoro-4-(7-(5-methyl-1H-imidazol-2-yl)-1-oxoisoindolin-4-yl)phenyl)urea] registered an IC50 of 5 nM.
For `Cc1cnc(-c2ccc(-c3ccc(NC(=O)Nc4c(F)ccc(Cl)c4F)cc3F)c3c2C(=O)NC3)[nH]1` [Compound 17, 1-(3-chloro-2,6-difluorophenyl)-3-(3-fluoro-4-(7-(5-methyl-1H-imidazol-2-yl)-1-oxoisoindolin-4-yl)phenyl)urea], inhibition was half-maximal at 0.05 nM (IC50).
The result for `Cc1cnc(-c2ccc(-c3ccc(NC(=O)Nc4c(F)ccc(F)c4Cl)cc3F)c3c2C(=O)NC3)[nH]1` [Compound 18, 1-(2-chloro-3,6-difluorophenyl)-3-(3-fluoro-4-(7-(5-methyl-1H-imidazol-2-yl)-1-oxoisoindolin-4-yl)phenyl)urea] reads 0.07 nM; that for `Cc1cnc(-c2ccc(-c3ccc(NC(=O)Nc4c(F)cc(Cl)cc4F)cc3F)c3c2C(=O)NC3)[nH]1` [Compound 19, 1-(4-chloro-2,6-difluoro-phenyl)-3-{3-fluoro-4-[7-(5-methyl-1H-imidazol-2-yl)-1-oxo-2,3-dihydro-1H-isoindol-4-yl]-phenyl}-urea], 4 nM; that for `Cc1cnc(-c2ccc(-c3ccc(NC(=O)Nc4c(F)c(F)cc(F)c4F)cc3F)c3c2C(=O)NC3)[nH]1` [Compound 20, 1-{3-fluoro-4-[7-(5-methyl-1H-imidazol-2-yl)-1-oxo-2,3-dihydro-1H-isoindol-4-yl]-phenyl}-3-(2,3,5,6-tetrafluoro-phenyl)-urea], 0.9 nM.

As usually defined, the IC50 is the concentration that gives 50% inhibition. Read a low IC50 as inhibition by little substance.
